Measured values from patent publication US20140357512A1, “HISTONE DEACETYLASE (HDAC) BIOMARKERS IN MULTIPLE MYELOMA” (priority 2013, published 2014).

Tested on: human myeloma cell line MM.1S
Assay: SILAC acetylated-lysine peptide profiling, HDAC inhibitor vs DMSO (light/heavy ratio)
Type: cell-based
From the text: An embodiment of the invention comprises utilizing the SILAC method in order to quantitate changes in protein expression between two or more populations of cells. The SILAC method is a technique based on mass spectrometry that detects differences in protein abundance among samples using non-radioactive isotopic labeling. The SILAC method is known in the art, and described in detail in Ong et al., “Stable Isotope Labeling by Amino Acids in Cell Culture, SILAC, as a Simple and Accurate Approach to Expression Proteomics”, Molecular & Cellular Proteomics, vol. 1, pp. 376-386 (2002), which is incorporated herein by reference in its entirety.
Briefly, the SILAC method involves growing two populations of cells in cell culture. The first population of cells is grown in growth media containing normal amino acids (“normal media”). The second population of cells is grown in media lacking a standard essential amino acid (such as lysine), but is then supplemented with a non-radioactive, isotopically labeled form of that essential amino acid (such as lysine labeled with ^13C atoms, rather than normal ^12C atoms), which is called “heavy media”. When the two populations of cells are each growing in the medium, they incorporate the amino acids into all of their proteins. The growth of cells maintained in the heavy media is no different from that in normal media. All peptides containing the heavy amino acids are heavier than their normal counterparts. The cells from each of the two populations of cells are lysed. The lysates from each of the two cell populations are then combined. The combined cell lysates are then analyzed by mass spectrometry. Pairs of chemically identical peptides of different stable isotope composition can be differentiated in a mass spectrometer due to their difference in mass. The ratio of peak intensities in the mass spectrum for such peptide pairs reflects the abundance ratio for the two proteins.
This example describes SILAC studies that were performed to compare the effects of three different HDAC inhibitors (Compound A, Compound B, and tubastatin A) to a control on a human multiple myeloma cell line. The HDAC inhibitors were also compared amongst themselves to determine differences in their effects.
A human myeloma cell line MM.1S was grown using either ^12C (light) or ^13C (heavy) lysine containing culture medium. The “heavy” cells were treated with DMSO as the control, and the “light” cells were treated with a single HDAC inhibitor at 37° C. for 6 hours. The heavy and light cells were lysed, and the lysates were mixed in 1:1 ratio and digested with the protease trypsin. The acetylated lysine containing peptides (due to the action of the HDAC inhibitor) in the digested peptide pool were captured by a non-specific anti-acetylated lysine antibody cocktail (the antibodies identify both light and heavy acetylated peptides), and subjected to mass spectrometry analysis in order to identify thousands of individual peptides.
Thousands of peptides were identified in pairs (^12C and ^13C) due to their known mass differences. The amino acid sequence and quantitative ratio (Light/Heavy) of a given peptide in two differentially treated cell lysates were then determined and annotated with their possible protein (gene) sources.
As stated above, three HDAC inhibitors (Compound A, Compound B, and Tubastatin A) were used. Thus, the SILAC method was performed three times, with a different HDAC inhibitor compared to a control each time. Accordingly, there are three pairs of quantitative data in the table below, i.e., Compound A:DMSO, Compound B:DMSO, and Tubastatin A:DMSO. A cut-off of 1.30 fold of change (increase or decrease) was then used to determine “changed” or “+” in the table, and any peptides with a fold of change less than 1.3 fold were determined to be “unchanged” or “0” in the table. Those peptides that were not identified were marked as “NA” in the table. […]

Question: What does the source list for `O=C(CCCCCCNC(=O)c1cnc(N(c2ccccc2)c2ccccc2)nc1)NO` [Compound A, 2-(diphenylamino)-N-(7-(hydroxyamino)-7-oxoheptyl)pyrimidine-5-carboxamide]?
Answer: light to heavy ratio (L/H ratio) of acetylated peptide GAGTDEK(ac)TLTR (SEQ ID NO: 621) (Annexin A6 [620], gene ANXA6, inhibitor:DMSO): 0.48 log 2; light to heavy ratio (L/H ratio), log 2 scale, acetylated peptide EFIEK(ac)YDK (SEQ ID NO: 779) (Annexin A6 [644], gene ANXA6, drug:DMSO): 1.00; light to heavy ratio (L/H ratio) of acetylated peptide DDNGK(ac)PYVLPSVR (SEQ ID NO: 579) (Aspartate aminotransferase mitochondrial [73], gene GOT2, inhibitor:DMSO): 0.43 log 2; light to heavy ratio (L/H ratio) of acetylated peptide LMEK(ac)EINGSK (SEQ ID NO: 517) (Atlastin-3 [309], gene ATL3, inhibitor:DMSO): −0.56 log 2; light to heavy ratio (L/H ratio) of acetylated peptide ELK(ac)EIQYGIR (SEQ ID NO: 540) (Branched-chain-amino-acid aminotransferase [337], gene BCAT2, inhibitor:DMSO): 0.39 log 2; light to heavy ratio (L/H ratio), log 2 scale, acetylated peptide ESCSK(ac)[…] (SEQ ID NO: 780) (Bromodomain and PHD finger-containing protein 3 [105], gene BRPF3, drug:DMSO): 1.00; L/H ratio of acetylated peptide FYGDEEK(ac)[…] (SEQ ID NO: 25) (CALR [62], log 2 scale, drug vs DMSO): 0.00; light to heavy ratio (L/H ratio) of acetylated peptide LQVLDPVPK(ac)PVIK (SEQ ID NO: 539) (CD48 antigen [133], gene CD48, inhibitor:DMSO): 0.39 log 2; light to heavy ratio (L/H ratio) of acetylated peptide AGLQVYNK(ac)CWK (SEQ ID NO: 260) (CD59 glycoprotein [63], CD59, drug:DMSO): 0.41 log 2; L/H ratio of acetylated peptide […](ac)R (SEQ ID NO: 26) (CLTC [637], log 2 scale, drug vs DMSO): 0.00; L/H ratio of acetylated peptide FK(ac)ESFAEMNR (SEQ ID NO: 1) (COX4I1 [87], log 2 scale, drug vs DMSO): 0.00; L/H ratio of acetylated peptide […](ac)QLCTIPR (SEQ ID NO: 27) (CREBBP [1216], log 2 scale, drug vs DMSO): 0.00; L/H ratio of acetylated peptide TNK(ac)NK(ac)SSISR (SEQ ID NO: 13) (CREBBP [1595:1597], log 2 scale, drug vs DMSO): 1.00; L/H ratio of acetylated peptide ALK(ac)DLYCHK (SEQ ID NO: 28) (CREM [240], log 2 scale, drug vs DMSO): 0.00; L/H ratio of acetylated peptide LYCPK(ac)CMDVYTPK (SEQ ID NO: 29) (CSNK2B [139], log 2 scale, drug vs DMSO): 0.00; light to heavy ratio (L/H ratio) of acetylated peptide NSFDCFK(ac)K (SEQ ID NO: 605) (Calcium-binding mitochondrial carrier protein Aralar2 [379], gene SLC25A13, inhibitor:DMSO): 0.46 log 2; light to heavy ratio (L/H ratio) of acetylated peptide FVLSSGK(ac)FYGDEEKDK (SEQ ID NO: 281) (Calreticulin [55], CALR, drug:DMSO): 0.58 log 2; light to heavy ratio (L/H ratio) of acetylated peptide VHVIFNYK(ac)GK (SEQ ID NO: 273) (Calreticulin [151], CALR, drug:DMSO): 0.48 log 2; light to heavy ratio (L/H ratio) of acetylated peptide NVLINK(ac)DIR (SEQ ID NO: 257) (Calreticulin [159], CALR, drug:DMSO): 0.39 log 2; light to heavy ratio (L/H ratio) of acetylated peptide TCDLVGEK(ac)GK (SEQ ID NO: 289) (Cation-dependent mannose-6-phosphate receptor [38], M6PR, drug:DMSO): 0.65 log 2; light to heavy ratio (L/H ratio) of acetylated peptide […](ac)GLLK (SEQ ID NO: 569) (Chloride intracellular channel protein 1 [131], gene CLIC1, inhibitor:DMSO): 0.41 log 2; light to heavy ratio (L/H ratio), log 2 scale, acetylated peptide GFSIPECQK(ac)LLPK (SEQ ID NO: 783) (Citrate synthase mitochondrial [103], gene CS, drug:DMSO): 1.00; light to heavy ratio (L/H ratio) of acetylated peptide […](ac)LR (SEQ ID NO: 566) (Citrate synthase mitochondrial [327], gene CS, inhibitor:DMSO): 0.41 log 2; light to heavy ratio (L/H ratio) of acetylated peptide EFALK(ac)HLPNDPMFK (SEQ ID NO: 583) (Citrate synthase mitochondrial [366], gene CS, inhibitor:DMSO): 0.43 log 2; light to heavy ratio (L/H ratio) of acetylated peptide SMSTEGLMK(ac)FVDSK (SEQ ID NO: 330) (Citrate synthase mitochondrial [459], CS, drug:DMSO): 0.00 log 2; light to heavy ratio (L/H ratio) of acetylated peptide VASK(ac)QLEEEDGSR (SEQ ID NO: 591) (Coatomer subunit gamma [238], gene COPG, inhibitor:DMSO): 0.44 log 2; light to heavy ratio (L/H ratio), log 2 scale, acetylated peptide MIYASSK(ac)DAIKK (SEQ ID NO: 763) (Cofilin-1 [121], gene CFL1, drug:DMSO): 0.93; light to heavy ratio (L/H ratio) of acetylated peptide AAEEVEAK(ac)FK (SEQ ID NO: 328) (Coiled-coil-helix-coiled-coil-helix domain-containing protein 3 mitochondrial [173], CHCHD3, drug:DMSO): 0.00 log 2; light to heavy ratio (L/H ratio) of acetylated peptide ASEIGEK(ac)YR (SEQ ID NO: 586) (Conserved hypothetical protein [484], gene KIAA0947, inhibitor:DMSO): 0.44 log 2; light to heavy ratio (L/H ratio) of acetylated peptide DHCVAHK(ac)LFNNLK (SEQ ID NO: 608) (Cytochrome b-c1 complex subunit 6 mitochondrial [85], gene UQCRH, inhibitor:DMSO): 0.46 log 2; light to heavy ratio (L/H ratio) of acetylated peptide LFDYFPK(ac)PYPNSEAAR (SEQ ID NO: 548) (Cytochrome c1 heme protein mitochondrial [177], gene CYC1, inhibitor:DMSO): 0.39 log 2; light to heavy ratio (L/H ratio) of acetylated peptide YFDEK(ac)IAK (SEQ ID NO: 563) (D-beta-hydroxybutyrate dehydrogenase mitochondrial [280], gene BDH1, inhibitor:DMSO): 0.41 log 2; L/H ratio of acetylated peptide FK(ac)[…] (SEQ ID NO: 30) (DAZAP1 [59], log 2 scale, drug vs DMSO): 0.00; L/H ratio of acetylated peptide APTIVGK(ac)SSLNPILFR (SEQ ID NO: 31) (DDOST [189], log 2 scale, drug vs DMSO): 0.00; L/H ratio of acetylated peptide FGNPGEK(ac)LVK (SEQ ID NO: 34) (DDX5 [40], log 2 scale, drug vs DMSO): 0.00
